# Experimental data: ChEMBL document CHEMBL6153042, “Glycoconjugates of adefovir and tenofovir as asialoglycoprotein-mediated Anti-HBV prodrugs with enhanced liver targeting” (Eur J Med Chem, 2025)
# Columns and labels:
# [1] = Drug metabolism in plasma of Sprague-Dawley rat assessed as hydrolyzed metabolite formation measured after 5 hrs by HPLC analysis; assay type: ADME, cell-free
# [2] = Prodrug release in human HepG2 cells assessed as adefovir release measured over 1 hrs by HPLC analysis; assay type: ADME, cell-based; settings: hepg2, 1 h
# [3] = Prodrug release in human HepG2 cells assessed as tenofovir release measured over 1 hrs by HPLC analysis; assay type: ADME, cell-based; settings: hepg2, 1 h
# [4] = Prodrug release in human HepG2 cells assessed as adefovir release by mass spectrometric analysis; assay type: ADME, cell-based
# [5] = Prodrug release in human HepG2 cells assessed as tenofovir release by mass spectrometric analysis; assay type: ADME, cell-based
# [6] = Toxicity in Kunming mouse assessed as histopathological changes in liver at 200 mg/kg, iv once daily for 5 days by H and E staining based analysis; assay type: organism-based; settings: in vivo, 120 h, time 5 day
# [7] = Toxicity in Kunming mouse assessed as effect on body weight at 100 to 200 mg/kg, iv administered once daily for 5 days; assay type: organism-based; settings: in vivo, 120 h, dose 100-200 mg/kg, time 5 day
# LX-2 [8] = experiment: Cytotoxicity against human LX2 cells at 5 uM incubated for 48 hrs by CCK8 assay; assay type: toxicity, cell-based; settings: lx-2, 48 h
# [9] = Toxicity in Kunming mouse assessed as maximum tolerated dose administered intravenously as once daily dose for 5 days; settings: in vivo, route iv, time 5 day
# LX-2 [10] = experiment: Cytotoxicity against human LX2 cells assessed as cell growth inhibition at 10 uM incubated for 48 hrs by CCK8 assay relative to control; assay type: toxicity, cell-based; settings: lx-2, 48 h, 10 µM
# [11] = Cytotoxicity against human HepG2.2.15 cells assessed as inhibition of cell proliferation by CCK8 assay; assay type: toxicity, cell-based, HepG2 2.2.15
# Hepatitis B virus = experiment: Antiviral activity against Hepatitis B virus infected in human HepG2.2.15 cells assessed as inhibition of HBV DNA replication incubated for 10 day by qPCR analysis; assay type: functional, organism-based; settings: HepG2.2.15, 240 h
# [12] = Selectivity index, the ratio of CC50 for human HepG2.2.15 cells to EC50 for antiviral activity against HBV in human HepG2.2.15 cells assessed as inhibition of HBV DNA replication; assay type: toxicity, cell-based; settings: read-out: Ratio CC50/EC50
# [13] = Toxicity in Kunming mouse assessed as histopathological changes in heart at 200 mg/kg, iv once daily for 5 days by H and E staining based analysis; assay type: organism-based; settings: in vivo, 120 h, time 5 day
# [14] = Toxicity in Kunming mouse assessed as histopathological changes in kidney at 200 mg/kg, iv once daily for 5 days by H and E staining based analysis; assay type: organism-based; settings: in vivo, 120 h, time 5 day
# [15] = Metabolic stability in rat liver microsomes assessed as half-life measured upto 60 mins by LC-MS/MS analysis; assay type: ADME, Microsome
# [16] = Metabolic stability in human liver microsomes assessed as half-life measured upto 60 mins by LC-MS/MS analysis; assay type: ADME, Microsome
# [17] = AUC (0 to t) in Sprague-Dawley rat at 50 mg/kg, po by LC-MS analysis; assay type: ADME, organism-based; settings: in vivo
# [18] = AUC (0 to t) in Sprague-Dawley rat at 5 mg/kg, iv by LC-MS analysis; assay type: ADME, organism-based; settings: in vivo
# [19] = AUC (0 to infinity) in Sprague-Dawley rat at 5 mg/kg, iv by LC-MS analysis; assay type: ADME, organism-based; settings: in vivo
# [20] = AUC (0 to infinity) in Sprague-Dawley rat at 50 mg/kg, po by LC-MS analysis; assay type: ADME, organism-based; settings: in vivo
# [21] = Half-life in Sprague-Dawley rat at 50 mg/kg, po by LC-MS analysis; assay type: ADME, organism-based; settings: in vivo
# [22] = Half-life in Sprague-Dawley rat at 5 mg/kg, iv by LC-MS analysis; assay type: ADME, organism-based; settings: in vivo
# [23] = Tmax in Sprague-Dawley rat at 5 mg/kg, iv by LC-MS analysis; assay type: ADME, organism-based; settings: in vivo
# [24] = Tmax in Sprague-Dawley rat at 50 mg/kg, po by LC-MS analysis; assay type: ADME, organism-based; settings: in vivo
# [25] = Cmax in Sprague-Dawley rat at 50 mg/kg, po by LC-MS analysis; assay type: ADME, organism-based; settings: in vivo
# [26] = Cmax in Sprague-Dawley rat at 5 mg/kg, iv by LC-MS analysis; assay type: ADME, organism-based; settings: in vivo
# [27] = Clearance in Sprague-Dawley rat at 5 mg/kg, iv by LC-MS analysis; assay type: ADME, organism-based; settings: in vivo
# [28] = Clearance in Sprague-Dawley rat at 50 mg/kg, po by LC-MS analysis; assay type: ADME, organism-based; settings: in vivo
# [29] = Oral bioavailability in Sprague-Dawley rat at 50 mg/kg by LC-MS analysis; assay type: ADME, organism-based; settings: in vivo
# [30] = Toxicity in Kunming mouse assessed as effect on heart colour at 100 to 200 mg/kg, iv once daily for 5 days; assay type: organism-based; settings: in vivo, 120 h, dose 100-200 mg/kg, time 5 day
# [31] = Toxicity in Kunming mouse assessed as effect on liver colour at 100 to 200 mg/kg, iv once daily for 5 days; assay type: organism-based; settings: in vivo, 120 h, dose 100-200 mg/kg, time 5 day
# [32] = Toxicity in Kunming mouse assessed as effect on kidney colour at 100 to 200 mg/kg, iv once daily for 5 days; assay type: organism-based; settings: in vivo, 120 h, dose 100-200 mg/kg, time 5 day
# [33] = Toxicity in Kunming mouse assessed as effect on heart size at 100 to 200 mg/kg, iv once daily for 5 days; assay type: organism-based; settings: in vivo, 120 h, dose 100-200 mg/kg, time 5 day
# [34] = Toxicity in Kunming mouse assessed as effect on liver size at 100 to 200 mg/kg, iv once daily for 5 days; assay type: organism-based; settings: in vivo, 120 h, dose 100-200 mg/kg, time 5 day
# [35] = Toxicity in Kunming mouse assessed as effect on kidney size at 100 to 200 mg/kg, iv once daily for 5 days; assay type: organism-based; settings: in vivo, 120 h, dose 100-200 mg/kg, time 5 day
# [36] = Toxicity in Kunming mouse assessed as effect on heart weight at 100 to 200 mg/kg, iv once daily for 5 days; assay type: organism-based; settings: in vivo, 120 h, dose 100-200 mg/kg, time 5 day
# [37] = Toxicity in Kunming mouse assessed as effect on liver weight at 100 to 200 mg/kg, iv once daily for 5 days; assay type: organism-based; settings: in vivo, 120 h, dose 100-200 mg/kg, time 5 day
# [38] = Toxicity in Kunming mouse assessed as effect on kidney weight at 100 to 200 mg/kg, iv once daily for 5 days; assay type: organism-based; settings: in vivo, 120 h, dose 100-200 mg/kg, time 5 day
# [39] = Drug uptake in Sprague-Dawley rat at 50 mg/kg, po or 5 mg/kg, iv measured after 2 to 3 hrs by LC-MS/MS analysis; assay type: ADME, organism-based; settings: in vivo, time 2-3 hrs
smiles,measurement,setting,value
CC(=O)N[C@H]1[C@H](OCCCCC(=O)NCCCNC(=O)CCOCC(COCCC(=O)NCCCNC(=O)CCCCO[C@@H]2O[C@H](CO)[C@H](O)[C@@H](O)[C@H]2NC(C)=O)(COCCC(=O)NCCCNC(=O)CCCCO[C@@H]2O[C@H](CO)[C@H](O)[C@@H](O)[C@H]2NC(C)=O)NC(=O)CCC(=O)NCCOCCOCCOCCOCCn2cc(COP(=O)(O)COCCn3cnc4c(N)ncnc43)nn2)O[C@H](CO)[C@H](O)[C@H]1O,Drug metabolism,[1],metabolite_notdetected
same,Drug metabolism,[2],metabolite_detected
same,Drug metabolism,[3],metabolite_detected
same,Drug metabolism,[4],metabolite_detected
same,Drug metabolism,[5],metabolite_detected
CC(=O)N[C@H]1[C@H](OCCCCC(=O)NCCOCCOCCOCCOCCn2cc(COP(=O)(CO[C@H](C)Cn3cnc4c(N)ncnc43)OCOC(=O)C(C)(C)C)nn2)O[C@H](CO)[C@H](O)[C@H]1O (stereo not given in full),Activity,[6],Non-toxic
same,Activity,[7],Non-toxic
same,Activity,LX-2 [8],Toxic
same,MTD at 120 h,[9],~200 mg/kg
same,Activity,LX-2 [10],Toxic
same,CC50,[11],> 100000 nM
same,EC50,Hepatitis B virus,214 nM
same,selectivity ratio,[12],> 468
same,Activity,[13],Non-toxic
same,Activity,[14],Non-toxic
same,half-life,[15],2.13 min
same,half-life,[16],12.4 min
same,AUC(0-t),[17],4900 ng·h/mL
same,AUC(0-t),[18],2100 ng·h/mL
same,AUC(0-inf),[19],2130 ng·h/mL
same,AUC(0-inf),[20],4930 ng·h/mL
same,half-life,[21],192 min
same,half-life,[22],67.2 min
same,Tmax,[23],1.98 min
same,Tmax,[24],45 min
same,Cmax,[25],1500 ng/mL
same,Cmax,[26],2030 ng/mL
same,clearance,[27],40.7 mL/min/kg
same,CL/F,[28],172 mL/min/kg
same,bioavailability,[29],23.4%
same,Activity,[30],Non-toxic
same,Activity,[31],Non-toxic
same,Activity,[32],Non-toxic
same,Activity,[33],Non-toxic
same,Activity,[34],Non-toxic
same,Activity,[35],Non-toxic
same,Activity,[36],Non-toxic
same,Activity,[37],Non-toxic
same,Activity,[38],Non-toxic
same,Drug uptake,[39],Not_active
CC(=O)N[C@H]1[C@H](OCCCCC(=O)NCCOCCOCCOCCOCCn2cc(COP(=O)(COCCn3cnc4c(N)ncnc43)OCOC(=O)C(C)(C)C)nn2)O[C@H](CO)[C@H](O)[C@H]1O (stereo not given in full),Activity,[6],Non-toxic
same,Activity,[7],Non-toxic
same,Activity,LX-2 [8],Toxic
same,MTD at 120 h,[9],~200 mg/kg
same,Activity,LX-2 [10],Toxic
same,CC50,[11],> 100000 nM
same,EC50,Hepatitis B virus,260 nM
same,selectivity ratio,[12],> 384
same,Activity,[13],Non-toxic
same,Activity,[14],Non-toxic
same,half-life,[15],2.33 min
same,half-life,[16],14.9 min
same,AUC(0-t),[17],3300 ng·h/mL
same,AUC(0-t),[18],1990 ng·h/mL
same,AUC(0-inf),[19],2000 ng·h/mL
same,AUC(0-inf),[20],3310 ng·h/mL
same,half-life,[21],191 min
same,half-life,[22],46.8 min
same,Tmax,[23],1.98 min
same,Tmax,[24],40.2 min
same,Cmax,[25],1290 ng/mL
same,Cmax,[26],2010 ng/mL
same,clearance,[27],42.1 mL/min/kg
same,CL/F,[28],252 mL/min/kg
same,bioavailability,[29],16.6%
same,Activity,[30],Non-toxic
same,Activity,[31],Non-toxic
same,Activity,[32],Non-toxic
same,Activity,[33],Non-toxic
same,Activity,[34],Non-toxic
same,Activity,[35],Non-toxic
same,Activity,[36],Non-toxic
same,Activity,[37],Non-toxic
same,Activity,[38],Non-toxic
same,Drug uptake,[39],Not_active
